Measured values reported in patent US7968551B2, “Chromenoneindoles” (Merck Patent GmbH, priority 2003, dated 2011).
One block for each compound: values may come before it.

Columns and labels:
cortical serotonin level = experiment: Microdialysis: effect on the cortical serotonin level in vivo; details: rats
Source text: In order to determine the effect of the substances on the cortical serotonin level in rats in vivo, a microdialysis probe with a semipermeable membrane was implanted into the brain tissue and perfused with a solution matched to the composition of cerebrospinal fluid (see in this respect, for example, Di Chiara, Trends Pharmacol. Sci. 11, 117-121, 1990). The molecules of the extracellular space, such as, for example, also of the neurotransmitter serotonin, diffuse via this membrane into the interior of the probe in accordance with their concentration gradient. From there, they are transported with the perfusion stream to a collecting vessel. The serotonin concentration in the dialysate obtained in this way is subsequently determined by means of high-sensitivity analytical methods. The fractions obtained at regular intervals (of, for example, 15-20 minutes) thus reflect the concentration changes of the transmitter in question in the brain tissue over a period of several hours. The concentration of the serotonin in the dialysate is firstly measured without any influence. The substance to be tested is then applied, and the serotonin concentrations before and after administration of the substances are compared.

[1] = Absolute bioavailability from AUC after po and iv administration; assay type: in vivo; details: rat; Wistar rats, male; iv 0.2 mg/kg, po 0.5 mg/kg; plasma by LC/MS/MS
Experimental: The bioavailability was determined by a standard method described in many textbooks of pharmacokinetics with the aid of the AUC (area under the concentration/time curves) measured after po and iv administration. For the determination of the absolute bioavailability, the plasma concentration curve of the said substances was determined after intravenous (iv) and oral (po) administration to Wistar rats (male; N=3 animals/administration). The following experiment design was selected: • Administration method: iv and po • Dose: iv−0.2 mg/kg; po−0.5 mg/kg • Time of blood sampling for the determination of the plasma concentrations: • iv: 0.1, 0.5, 1, 2, 4, 6 and 24 h • po: 0.25, 0.5, 1, 2, 4, 6 and 24 h
The plasma concentrations were determined with the aid of LC/MS/MS.
The plasma concentrations were used to calculate the AUC (area under the concentration/time curve) in accordance with the so-called trapezium formula.
The bioavailability is obtained from the AUC in accordance with the following formula: Bioavailability [%]=100×(AUC po)/AUC iv)[…]

SMILES: N#Cc1ccc2[nH]cc(CCCCN3CCN(c4ccc5oc(=O)c(N)cc5c4)CC3)c2c1 [EMD 480246, 3-{4-[4-(3-Amino-2-oxo-2H-chromen-6-yl)piperazin-1-yl]butyl}-1H-indole-5-carbonitrile]
serotonin level in the brain (5-HT concentration in the dialysate), FIG. 2 (cortical serotonin level; 0.3 mg/kg i.p.): even higher serotonin level than EMD 391987

bioavailability [1]: ~20%
SMILES: CCOC(=O)Nc1cc2cc(N3CCN(CCCCc4c[nH]c5ccc(C#N)cc45)CC3)ccc2oc1=O [EMD 480247, Ethyl(6-{4-[4-(5-cyano-1H-indol-3-yl)butyl]piperazin-1-yl}-2-oxo-2H-chromen-3-yl)carbamate]
serotonin level in the brain (5-HT concentration in the dialysate), FIG. 3 (cortical serotonin level; 0.3 or 1.0 mg/kg i.p. compared with vilazodone 1 mg/kg): clearly superior action to vilazodone

bioavailability [1]: 10%
SMILES: N#Cc1ccc2[nH]cc(CCCCN3CCN(c4ccc5oc(=O)ccc5c4)CC3)c2c1 [EMD 135894, 3-(4-(4-(2-oxo-2H-1-benzopyran-6-yl)-1-piperazinyl)butyl)indole-5-carbonitrile, reference compound]

SMILES: N#Cc1ccc2[nH]cc(CCCCN3CCN(c4ccc5oc(C(N)=O)cc5c4)CC3)c2c1 [EMD 68843, 5-{4-[4-(5-cyano-3-inolyl)butyl]-1-piperanzinyl}benzofuran-2-carboxamide, reference compound]
serotonin level in the brain (5-HT concentration in the dialysate), FIG. 1 (cortical serotonin level; 1 mg/kg i.p.): comparable increase in the concentration of serotonin in the brain to EMD 135894
